# In patent publication US20130096170A1 (priority 2011, published 2013):
# Tests used:
# [1] = tested on: neonates ≥28 to ≤44 weeks gestational age
# [2] = clinical; details: human, in vivo
# [3] = age Group I, dose level 2 (Dex 0.1), N = 6
compound,measurement,setting,value
Cc1cccc([C@H](C)c2cnc[nH]2)c1C [dexmedetomidine],"TEAE: Anger, subjects",[1]; [3],1 (16.7%)
same,"TEAE: Blood bilirubin unconjugated increased, subjects",[1]; [3],1 (16.7%)
same,"TEAE: Bradycardia, subjects",[1]; [3],1 (16.7%)
same,"TEAE: Cardiac disorders, subjects",[1]; [3],1 (16.7%)
same,"TEAE: Cardio-respiratory arrest, subjects",[1]; [3],1 (16.7%)
same,"TEAE: General disorders and administration site conditions, subjects",[1]; [3],2 (33.3%)
same,"TEAE: Haematuria, subjects",[1]; [3],1 (16.7%)
same,"TEAE: Hepatobiliary disorders, subjects",[1]; [3],1 (16.7%)
same,"TEAE: Hyperbilirubinaemia, subjects",[1]; [3],1 (16.7%)
same,"TEAE: Hyperglycaemia, subjects",[1]; [3],1 (16.7%)
same,"TEAE: Hypocalcaemia, subjects",[1]; [3],1 (16.7%)
same,"TEAE: Hypoproteinaemia, subjects",[1]; [3],1 (16.7%)
same,"TEAE: Infections and infestations, subjects",[1]; [3],1 (16.7%)
same,"TEAE: Infusion site extravasation, subjects",[1]; [3],1 (16.7%)
same,"TEAE: Investigations, subjects",[1]; [3],2 (33.3%)
same,"TEAE: Oedema, subjects",[1]; [3],1 (16.7%)
same,"TEAE: Oxygen saturation decreased, subjects",[1]; [3],1 (16.7%)
same,"TEAE: Psychiatric disorders, subjects",[1]; [3],1 (16.7%)
same,"TEAE: Renal and urinary disorders, subjects",[1]; [3],1 (16.7%)
same,"TEAE: Sepsis, subjects",[1]; [3],1 (16.7%)
same,"TEAE: Metabolism and nutrition disorders, subjects","[1]; human, in vivo",3 (50.0%)
same,TEAE: Number of Events,"[1]; human, in vivo",18
same,patients with adverse events,"[1]; human, in vivo",67%
same,subjects with treatment-emergent adverse effects assessed as related to treatment,"[1]; human, in vivo",2 subjects
same,safety and tolerability,[1]; in vivo,safe and well tolerated
same,severe treatment-emergent adverse effects,[1]; in vivo,no severe
same,clearance,"[2]; CL, Population Mean",308 mL/min
same,clearance,"[2]; CL, model value",142 mL/min
same,clearance,"[2]; Weight-Adjusted CL, Geo. Mean of individual Bayesian estimates",16.5 mL/min/kg
same,clearance,"[2]; Weight-Adjusted CL, Geometric Mean",16.5 mL/min/kg
same,half-life,[2]; terminal elimination (β) half-life,96 min
